The NIST ThermoML archive (doi:10.1021/acs.jced.5b00934)
± gives the expanded uncertainty stated by the source.

Details: Liquid, Vibrating tube method

CCC(C)O (stereo not drawn) [butan-2-ol]
Details | mass density [kg/m3]
343.15 K, 47992 kPa | 801 ± 1
343.15 K, 49990 kPa | 802.3 ± 1
343.15 K, 52005 kPa | 803.6 ± 1
343.15 K, 55047 kPa | 805.7 ± 1
343.15 K, 57941 kPa | 807.5 ± 1
343.15 K, 59985 kPa | 808.8 ± 1
343.15 K, 61963 kPa | 810 ± 1
343.15 K, 64974 kPa | 811.9 ± 1
343.16 K, 2963 kPa | 763.4 ± 0.8
343.16 K, 66132 kPa | 812.5 ± 1
348.15 K, 99 kPa | 755 ± 0.8
348.15 K, 293 kPa | 755.2 ± 0.8
348.15 K, 632 kPa | 755.6 ± 0.8
348.15 K, 926 kPa | 756 ± 0.8
348.15 K, 1007 kPa | 756 ± 0.8
348.15 K, 1961 kPa | 757.1 ± 0.8
348.15 K, 2971 kPa | 758.2 ± 0.8
348.15 K, 4887 kPa | 760.3 ± 0.8
348.15 K, 6901 kPa | 762.5 ± 0.8
348.15 K, 8976 kPa | 764.6 ± 0.9
348.15 K, 10049 kPa | 765.7 ± 0.9
348.15 K, 12159 kPa | 767.9 ± 0.9
348.15 K, 15134 kPa | 770.8 ± 0.9
348.15 K, 18029 kPa | 773.4 ± 0.9
348.15 K, 20029 kPa | 775.3 ± 0.9
348.15 K, 22105 kPa | 777.1 ± 0.9
348.15 K, 24943 kPa | 779.5 ± 0.9
348.15 K, 27937 kPa | 782.1 ± 0.9
348.15 K, 29922 kPa | 783.7 ± 0.9
348.15 K, 32051 kPa | 785.4 ± 0.9
348.15 K, 33089 kPa | 786.2 ± 0.9
348.15 K, 33156 kPa | 786.2 ± 0.9
348.15 K, 34089 kPa | 786.8 ± 0.9
348.15 K, 35121 kPa | 787.6 ± 0.9
348.15 K, 37976 kPa | 789.8 ± 0.9
348.15 K, 40028 kPa | 791.3 ± 1
348.15 K, 42107 kPa | 792.9 ± 1
348.15 K, 44933 kPa | 794.9 ± 1
348.15 K, 48043 kPa | 797.1 ± 1
348.15 K, 50077 kPa | 798.4 ± 1
348.15 K, 52078 kPa | 799.8 ± 1
348.15 K, 54947 kPa | 801.7 ± 1
348.15 K, 58004 kPa | 803.6 ± 1
348.15 K, 60105 kPa | 805.1 ± 1
348.15 K, 62134 kPa | 806.4 ± 1
348.15 K, 64952 kPa | 808.1 ± 1
348.15 K, 66089 kPa | 808.8 ± 1
353.15 K, 101 kPa | 749.7 ± 0.8
353.15 K, 309 kPa | 749.9 ± 0.8
353.15 K, 488 kPa | 750.2 ± 0.8
353.15 K, 937 kPa | 750.7 ± 0.8
353.15 K, 997 kPa | 750.8 ± 0.8
353.15 K, 2036 kPa | 752 ± 0.8
353.15 K, 5052 kPa | 755.5 ± 0.8
353.15 K, 7035 kPa | 757.6 ± 0.8
353.15 K, 8919 kPa | 759.7 ± 0.9
353.15 K, 10172 kPa | 761 ± 0.9
353.15 K, 14941 kPa | 765.8 ± 0.9
353.15 K, 20147 kPa | 770.7 ± 0.9
353.15 K, 22188 kPa | 772.6 ± 0.9
353.15 K, 25053 kPa | 775.1 ± 0.9
353.15 K, 28045 kPa | 777.7 ± 0.9
353.15 K, 30122 kPa | 779.4 ± 0.9
353.15 K, 31946 kPa | 780.9 ± 0.9
353.15 K, 32790 kPa | 781.6 ± 0.9
353.15 K, 32795 kPa | 781.5 ± 0.9
353.15 K, 34025 kPa | 782.5 ± 0.9
353.15 K, 35037 kPa | 783.3 ± 0.9
353.15 K, 39961 kPa | 787.1 ± 1
353.15 K, 42055 kPa | 788.7 ± 1
353.15 K, 45025 kPa | 790.9 ± 1
353.15 K, 47906 kPa | 793 ± 1
353.15 K, 51988 kPa | 795.8 ± 1
353.15 K, 58003 kPa | 799.9 ± 1
353.15 K, 62118 kPa | 802.6 ± 1
353.15 K, 65015 kPa | 804.4 ± 1
353.15 K, 66227 kPa | 805.2 ± 1
353.16 K, 2973 kPa | 753.1 ± 0.8
353.16 K, 12072 kPa | 762.9 ± 0.9
353.16 K, 18090 kPa | 768.8 ± 0.9
353.16 K, 38061 kPa | 785.7 ± 0.9
353.16 K, 49998 kPa | 794.4 ± 1
353.16 K, 54972 kPa | 797.7 ± 1
353.16 K, 60035 kPa | 801.2 ± 1
358.15 K, 94 kPa | 744.2 ± 0.8
358.15 K, 317 kPa | 744.5 ± 0.8
358.15 K, 531 kPa | 744.8 ± 0.8
358.15 K, 912 kPa | 745.3 ± 0.8
358.15 K, 2002 kPa | 746.6 ± 0.8
358.15 K, 6978 kPa | 752.5 ± 0.8
358.15 K, 8996 kPa | 754.7 ± 0.9
358.15 K, 14843 kPa | 760.9 ± 0.9
358.15 K, 20099 kPa | 766.2 ± 0.9
358.15 K, 22025 kPa | 767.9 ± 0.9
358.15 K, 25009 kPa | 770.7 ± 0.9
358.15 K, 33055 kPa | 777.5 ± 0.9
358.15 K, 33103 kPa | 777.7 ± 0.9
358.15 K, 34173 kPa | 778.4 ± 0.9
358.15 K, 35154 kPa | 779.2 ± 0.9
358.15 K, 38016 kPa | 781.5 ± 1
358.15 K, 40036 kPa | 783.1 ± 1
358.15 K, 42070 kPa | 784.7 ± 1
358.15 K, 44944 kPa | 786.8 ± 1
358.15 K, 47921 kPa | 789 ± 1
358.15 K, 50038 kPa | 790.5 ± 1
358.15 K, 52069 kPa | 792 ± 1
358.15 K, 55065 kPa | 794.1 ± 1
358.15 K, 58024 kPa | 796.1 ± 1
358.15 K, 60060 kPa | 797.4 ± 1
358.15 K, 62217 kPa | 798.9 ± 1
358.15 K, 65051 kPa | 800.7 ± 1
358.15 K, 66079 kPa | 801.3 ± 1.1
358.16 K, 997 kPa | 745.3 ± 0.8
358.16 K, 2956 kPa | 747.8 ± 0.8
358.16 K, 4886 kPa | 750.1 ± 0.8
358.16 K, 10124 kPa | 755.9 ± 0.9
358.16 K, 11961 kPa | 757.9 ± 0.9
358.16 K, 17993 kPa | 764.1 ± 0.9
358.16 K, 27942 kPa | 773.3 ± 0.9
358.16 K, 30089 kPa | 775.1 ± 0.9
358.16 K, 32063 kPa | 776.8 ± 0.9
363.15 K, 99 kPa | 738.7 ± 0.8
363.15 K, 349 kPa | 739 ± 0.8
363.15 K, 512 kPa | 739.3 ± 0.8
363.15 K, 910 kPa | 739.8 ± 0.8
363.15 K, 3038 kPa | 742.5 ± 0.8
363.15 K, 12190 kPa | 753.3 ± 0.9
363.15 K, 25101 kPa | 766.2 ± 0.9
363.15 K, 30034 kPa | 770.6 ± 0.9
363.15 K, 33002 kPa | 773.1 ± 0.9
363.15 K, 33042 kPa | 773.2 ± 0.9
363.15 K, 34072 kPa | 774 ± 0.9
363.15 K, 40041 kPa | 779 ± 1
363.15 K, 42237 kPa | 780.7 ± 1
363.15 K, 44948 kPa | 782.8 ± 1
363.15 K, 48033 kPa | 785.1 ± 1
363.15 K, 50015 kPa | 786.6 ± 1
363.15 K, 52088 kPa | 788.1 ± 1
363.15 K, 55038 kPa | 790.2 ± 1
363.15 K, 57996 kPa | 792.2 ± 1
363.15 K, 60085 kPa | 793.7 ± 1
363.15 K, 62081 kPa | 795 ± 1
363.15 K, 65016 kPa | 796.9 ± 1.1
363.15 K, 66010 kPa | 797.6 ± 1.1
363.16 K, 1038 kPa | 739.9 ± 0.8
363.16 K, 2013 kPa | 741.2 ± 0.8
363.16 K, 5065 kPa | 745 ± 0.8
363.16 K, 7039 kPa | 747.4 ± 0.9
363.16 K, 8975 kPa | 749.7 ± 0.9
363.16 K, 10001 kPa | 750.8 ± 0.9
363.16 K, 14664 kPa | 755.9 ± 0.9
363.16 K, 17691 kPa | 759 ± 0.9
363.16 K, 20116 kPa | 761.4 ± 0.9
363.16 K, 22089 kPa | 763.4 ± 0.9
363.16 K, 28014 kPa | 768.8 ± 0.9
363.16 K, 32089 kPa | 772.4 ± 0.9
363.16 K, 35096 kPa | 775 ± 0.9
363.16 K, 37960 kPa | 777.4 ± 1
